Data published in patent US6770597B2, “Benzohydrazide derivatives as herbicides and desiccant compositions containing them” (Ishihara Sangyo Kaisha, Ltd., priority 2002, dated 2004).

Key:
Assay type in all cases: in vivo
[1] = tested on: cocklebur (Xanthium strumarium, XANST); assay: Greenhouse herbicide screen, pre-emerge application, phytotoxicity rating; details: PRE emergent, 14 days after application, rating scale 0-100
How it was run: (§1)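 Acetone solutions were track-sprayed at 187 l/ha, at 15–1000 g ai/ha, onto sandy loam pots. Pre-emerge pots were seeded one day before spraying and top-watered; post-emerge plants were at 2–3 leaf stage (sown 8–21 days prior) and bottom-watered. Damage rated 0 (none) to 100 (complete death) at 14 days.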

[2] = tested on: lambsquarters (Chenopodium album, CHEAL); assay: as above; details: PRE emergent, 14 days after application, rating scale 0-100
How it was run: as §1

[3] = tested on: johnsongrass (Sorghum halepense, SORHA); assay: as above; details: PRE emergent, 14 days after application, rating scale 0-100
How it was run: as §1

[4] = tested on: large crabgrass (Digitaria sanguinalis, DIGSA); assay: as above; details: PRE emergent, 14 days after application, rating scale 0-100
How it was run: as §1

[5] = tested on: ivyleaf morningglory (Ipomoea hederacea, IPOHE); assay: as above; details: PRE emergent, 14 days after application, rating scale 0-100
How it was run: as §1

[6] = tested on: redroot pigweed (Amaranthus retrofiexus, AMARE); assay: as above; details: PRE emergent, 14 days after application, rating scale 0-100
How it was run: as §1

[7] = tested on: velvetleaf (Abutilon theophrasti, ABUTH); assay: as above; details: PRE emergent, 14 days after application, rating scale 0-100
How it was run: as §1

[8] = tested on: common ragweed (Ambrosia artemisiifolia L., AMBEL); assay: as above; details: PRE emergent, 14 days after application, rating scale 0-100
How it was run: as §1

[9] = tested on: green foxtail (Setaria viridis, SETVI); assay: as above; details: PRE emergent, 14 days after application, rating scale 0-100
How it was run: as §1

[10] = tested on: barnyardgrass (Echinochloa crus-galli, ECHCG); assay: as above; details: PRE emergent, 14 days after application, rating scale 0-100
How it was run: as §1

[11] = tested on: sicklepod (Cassia obtusifolia, CASOB); assay: as above; details: PRE emergent, 14 days after application, rating scale 0-100
How it was run: as §1

[12] = tested on: upland rice (Oryza sp., var.Cocodrie, RICE); assay: Greenhouse herbicide screen, post-emerge application, crop damage rating; details: POST emergent, 14 days after application, scale 0-100
How it was run: as §1

[13] = tested on: field corn (Zea mays L., var. Dekalb 535, CORN); assay: as above; details: POST emergent, 14 days after application, scale 0-100
How it was run: as §1

[14] = tested on: cocklebur (Xanthium strumarium, XANST); assay: Greenhouse herbicide screen, post-emerge application, phytotoxicity rating; details: POST emergent, 14 days after application, scale 0-100
How it was run: as §1

[15] = tested on: lambsquarters (Chenopodium album, CHEAL); assay: as above; details: POST emergent, 14 days after application, scale 0-100
How it was run: as §1

[16] = tested on: johnsongrass (Sorghum halepense, SORHA); assay: as above; details: POST emergent, 14 days after application, scale 0-100
How it was run: as §1

[17] = tested on: large crabgrass (Digitaria sanguinalis, DIGSA); assay: as above; details: POST emergent, 14 days after application, scale 0-100
How it was run: as §1

[18] = tested on: ivyleaf morningglory (Ipomoea hederacea, IPOHE); assay: as above; details: POST emergent, 14 days after application, scale 0-100
How it was run: as §1

[19] = tested on: redroot pigweed (Amaranthus retrofiexus, AMARE); assay: as above; details: POST emergent, 14 days after application
How it was run: as §1

[20] = tested on: velvetleaf (Abutilon theophrasti, ABUTH); assay: as above; details: POST emergent, 14 days after application, scale 0-100
How it was run: as §1

[21] = tested on: common ragweed (Ambrosia artemisiifolia L., AMBEL); assay: as above; details: POST emergent, 14 days after application, scale 0-100
How it was run: as §1

[22] = tested on: green foxtail (Setaria viridis, SETVI); assay: as above; details: POST emergent, 14 days after application, scale 0-100
How it was run: as §1

[23] = tested on: barnyardgrass (Echinochloa crus-galli, ECHCG); assay: as above; details: POST emergent, 14 days after application, scale 0-100
How it was run: as §1

[24] = tested on: sicklepod (Cassia obtusifolia, CASOB); assay: as above; details: POST emergent, 14 days after application, scale 0-100
How it was run: as §1

[25] = tested on: upland rice (Oryza sp., var.Cocodrie, RICE); assay: Greenhouse herbicide screen, pre-emerge application, crop damage rating; details: PRE emergent, 14 days after application, rating scale 0-100
How it was run: as §1

[26] = tested on: field corn (Zea mays L., var. Dekalb 535, CORN); assay: as above; details: PRE emergent, 14 days after application, rating scale 0-100
How it was run: as §1

[27] = 63 g ai/ha, scale 0-100 (0 no damage, 100 complete death)

CC1CCCC(C)N1NC(=O)c1cc(-n2c(=O)cc(C(F)(F)F)n(C)c2=O)c(F)cc1Cl (centres unmarked) [Compound 1-16]
75: phytotoxicity rating XANST ([1]; 63 g ai/ha) | phytotoxicity rating SORHA ([3]; 63 g ai/ha) | phytotoxicity rating XANST ([14]; 63 g ai/ha) | phytotoxicity rating SORHA ([16]; 63 g ai/ha)
45: crop damage rating RICE ([12]; 63 g ai/ha) | crop damage rating RICE ([25]; 63 g ai/ha)
90: phytotoxicity rating SETVI ([9]; 63 g ai/ha) | phytotoxicity rating SETVI ([22]; 63 g ai/ha)
35: phytotoxicity rating ECHCG ([10]; 63 g ai/ha) | phytotoxicity rating ECHCO ([23]; 63 g ai/ha)
99: phytotoxicity rating SORHA ([3]; 250 g ai/ha) | phytotoxicity rating AMBEL ([8]; 63 g ai/ha) | phytotoxicity rating AMBEL ([8]; 250 g ai/ha) | phytotoxicity rating SETVI ([9]; 250 g ai/ha) | phytotoxicity rating CASOB ([11]; 250 g ai/ha) | phytotoxicity rating SORHA ([16]; 250 g ai/ha) | phytotoxicity rating AMBEL ([21]; 63 g ai/ha) | phytotoxicity rating AMBEL ([21]; 250 g ai/ha) | phytotoxicity rating SETVI ([22]; 250 g ai/ha) | phytotoxicity rating CASOB ([24]; 250 g ai/ha)
30: phytotoxicity rating DIGSA ([4]; 63 g ai/ha) | phytotoxicity rating DIGSA ([17]; 63 g ai/ha)
100: phytotoxicity rating XANST ([1]; 250 g ai/ha) | phytotoxicity rating CHEAL ([2]; 63 g ai/ha) | phytotoxicity rating CHEAL ([2]; 250 g ai/ha) | phytotoxicity rating IPOHE ([5]; 63 g ai/ha) | phytotoxicity rating IPOHE ([5]; 250 g ai/ha) | phytotoxicity rating AMARE ([6]; 63 g ai/ha) | phytotoxicity rating AMARE ([6]; 250 g ai/ha) | phytotoxicity rating ABUTH ([7]; 63 g ai/ha) | phytotoxicity rating ABUTH ([7]; 250 g ai/ha) | crop damage rating CORN ([13]; 63 g ai/ha) | crop damage rating CORN ([13]; 250 g ai/ha) | phytotoxicity rating XANST ([14]; 250 g ai/ha) | phytotoxicity rating CHEAL ([15]; 63 g ai/ha) | phytotoxicity rating CHEAL ([15]; 250 g ai/ha) | phytotoxicity rating IPOHE ([18]; 63 g ai/ha) | phytotoxicity rating IPOHE ([18]; 250 g ai/ha) | phytotoxicity rating AMARE [19, 27] | phytotoxicity rating AMARE ([19]; 250 g ai/ha, scale 0-100) | phytotoxicity rating ABUTH ([20]; 63 g ai/ha) | phytotoxicity rating ABUTH ([20]; 250 g ai/ha) | crop damage rating CORN ([26]; 63 g ai/ha) | crop damage rating CORN ([26]; 250 g ai/ha)
98: phytotoxicity rating DIGSA ([4]; 250 g ai/ha) | phytotoxicity rating ECHCG ([10]; 250 g ai/ha) | phytotoxicity rating CASOB ([11]; 63 g ai/ha) | crop damage rating RICE ([12]; 250 g ai/ha) | phytotoxicity rating DIGSA ([17]; 250 g ai/ha) | phytotoxicity rating ECHCO ([23]; 250 g ai/ha) | phytotoxicity rating CASOB ([24]; 63 g ai/ha) | crop damage rating RICE ([25]; 250 g ai/ha)

CCOC(=O)NNC(=O)c1cc(-n2c(=O)cc(C(F)(F)F)n(C)c2=O)c(F)cc1Cl [Compound 1-23]
98: phytotoxicity rating IPOHE ([5]; 63 g ai/ha) | phytotoxicity rating CASOB ([11]; 63 g ai/ha) | phytotoxicity rating CASOB ([11]; 250 g ai/ha) | phytotoxicity rating IPOHE ([18]; 63 g ai/ha) | phytotoxicity rating CASOB ([24]; 63 g ai/ha) | phytotoxicity rating CASOB ([24]; 250 g ai/ha)
80: crop damage rating CORN ([13]; 63 g ai/ha) | crop damage rating CORN ([26]; 63 g ai/ha)
50: phytotoxicity rating ECHCG ([10]; 63 g ai/ha) | phytotoxicity rating ECHCO ([23]; 63 g ai/ha)
85: phytotoxicity rating AMBEL ([8]; 63 g ai/ha) | crop damage rating RICE ([12]; 250 g ai/ha) | phytotoxicity rating AMBEL ([21]; 63 g ai/ha) | crop damage rating RICE ([25]; 250 g ai/ha)
99: phytotoxicity rating SORHA ([3]; 250 g ai/ha) | phytotoxicity rating SETVI ([9]; 250 g ai/ha) | phytotoxicity rating SORHA ([16]; 250 g ai/ha) | phytotoxicity rating SETVI ([22]; 250 g ai/ha)
100: phytotoxicity rating XANST ([1]; 63 g ai/ha) | phytotoxicity rating XANST ([1]; 250 g ai/ha) | phytotoxicity rating CHEAL ([2]; 63 g ai/ha) | phytotoxicity rating CHEAL ([2]; 250 g ai/ha) | phytotoxicity rating IPOHE ([5]; 250 g ai/ha) | phytotoxicity rating AMARE ([6]; 63 g ai/ha) | phytotoxicity rating AMARE ([6]; 250 g ai/ha) | phytotoxicity rating ABUTH ([7]; 63 g ai/ha) | phytotoxicity rating ABUTH ([7]; 250 g ai/ha) | phytotoxicity rating AMBEL ([8]; 250 g ai/ha) | crop damage rating CORN ([13]; 250 g ai/ha) | phytotoxicity rating XANST ([14]; 63 g ai/ha) | phytotoxicity rating XANST ([14]; 250 g ai/ha) | phytotoxicity rating CHEAL ([15]; 63 g ai/ha) | phytotoxicity rating CHEAL ([15]; 250 g ai/ha) | phytotoxicity rating IPOHE ([18]; 250 g ai/ha) | phytotoxicity rating AMARE [19, 27] | phytotoxicity rating AMARE ([19]; 250 g ai/ha, scale 0-100) | phytotoxicity rating ABUTH ([20]; 63 g ai/ha) | phytotoxicity rating ABUTH ([20]; 250 g ai/ha) | phytotoxicity rating AMBEL ([21]; 250 g ai/ha) | crop damage rating CORN ([26]; 250 g ai/ha)
70: phytotoxicity rating SORHA ([3]; 63 g ai/ha) | phytotoxicity rating SORHA ([16]; 63 g ai/ha)
45: crop damage rating RICE ([12]; 63 g ai/ha) | crop damage rating RICE ([25]; 63 g ai/ha)
75: phytotoxicity rating DIGSA ([4]; 63 g ai/ha) | phytotoxicity rating DIGSA ([4]; 250 g ai/ha) | phytotoxicity rating ECHCG ([10]; 250 g ai/ha) | phytotoxicity rating DIGSA ([17]; 63 g ai/ha) | phytotoxicity rating DIGSA ([17]; 250 g ai/ha) | phytotoxicity rating ECHCO ([23]; 250 g ai/ha)
55: phytotoxicity rating SETVI ([9]; 63 g ai/ha) | phytotoxicity rating SETVI ([22]; 63 g ai/ha)
